{
  "source": "PubChem BioAssay (NCI)",
  "experiment_in_all_cases": "NCI anticancer screen, dose series, 384-well format",
  "key": {"SNB-75 CNS": {"system": "SNB-75 CNS"}, "IGROV1 ovarian": {"system": "IGROV1 ovarian"}, "T-47D breast": {"system": "T-47D breast"}, "HT29 colon": {"system": "HT29 colon"}, "NCI/ADR-RES ovarian": {"system": "NCI/ADR-RES ovarian"}, "NCI-H226 lung": {"system": "NCI-H226 lung"}, "SF-539 CNS": {"system": "SF-539 CNS"}, "MDA-MB-468 breast": {"system": "MDA-MB-468 breast"}, "HOP-62 NSCLC": {"system": "HOP-62 NSCLC"}, "UACC-62 melanoma": {"system": "UACC-62 melanoma"}, "SNB-19 CNS": {"system": "SNB-19 CNS"}, "MCF7 breast": {"system": "MCF7 breast"}, "HOP-92 NSCLC": {"system": "HOP-92 NSCLC"}, "ACHN renal": {"system": "ACHN renal"}, "SK-OV-3 ovarian": {"system": "SK-OV-3 ovarian"}, "U251 glioblastoma": {"system": "U251 glioblastoma"}, "K-562 leukemia": {"system": "K-562 leukemia"}, "A549 NSCLC": {"system": "A549 NSCLC"}, "LOX IMVI melanoma": {"system": "LOX IMVI melanoma"}, "RPMI-8226 leukemia": {"system": "RPMI-8226 leukemia"}, "PC-3 prostate": {"system": "PC-3 prostate"}, "M14 melanoma": {"system": "M14 melanoma"}, "HCT-15 colon": {"system": "HCT-15 colon"}, "OVCAR-8 ovarian": {"system": "OVCAR-8 ovarian"}, "OVCAR-5 ovarian": {"system": "OVCAR-5 ovarian"}, "MALME-3M melanoma": {"system": "MALME-3M melanoma"}, "HL-60(TB) leukemia": {"system": "HL-60(TB) leukemia"}, "RXF 393 renal": {"system": "RXF 393 renal"}, "CAKI-1 renal": {"system": "CAKI-1 renal"}, "SW-620 colon": {"system": "SW-620 colon"}, "SF-295 CNS": {"system": "SF-295 CNS"}, "SK-MEL-28 melanoma": {"system": "SK-MEL-28 melanoma"}, "SN12C renal": {"system": "SN12C renal"}, "KM12 colon": {"system": "KM12 colon"}, "OVCAR-3 ovarian": {"system": "OVCAR-3 ovarian"}, "DU-145 prostate": {"system": "DU-145 prostate"}, "BT-549 breast": {"system": "BT-549 breast"}, "SK-MEL-2 melanoma": {"system": "SK-MEL-2 melanoma"}, "HCT-116 colon": {"system": "HCT-116 colon"}, "UO-31 renal": {"system": "UO-31 renal"}, "MOLT-4 leukemia": {"system": "MOLT-4 leukemia"}, "SF-268 CNS": {"system": "SF-268 CNS"}, "NCI-H23 lung": {"system": "NCI-H23 lung"}, "CCRF-CEM leukemia": {"system": "CCRF-CEM leukemia"}, "786-0 renal": {"system": "786-0 renal"}, "OVCAR-4 ovarian": {"system": "OVCAR-4 ovarian"}, "NCI-H522 lung": {"system": "NCI-H522 lung"}},
  "note": "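GI50 marks 50% less growth. TGI is the concentration that stops growth completely.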",
  "data": [
    {"smiles": "N[C@@H](Cc1ccc(N(CCCl)CCCl)cc1)C(=O)O", "values": [
      {"measurement": "GI50", "setting": "SNB-75 CNS", "result": 20.9, "unit": "µM"},
      {"measurement": "GI50", "setting": "IGROV1 ovarian", "result": 85.1, "unit": "µM"},
      {"measurement": "GI50", "setting": "T-47D breast", "result": 41, "unit": "µM"},
      {"measurement": "GI50", "setting": "HT29 colon", "result": 47, "unit": "µM"},
      {"measurement": "GI50", "setting": "NCI/ADR-RES ovarian", "result": 55.3, "unit": "µM"},
      {"measurement": "GI50", "setting": "NCI-H226 lung", "result": 87.8, "unit": "µM"},
      {"measurement": "GI50", "setting": "SF-539 CNS", "result": 15.4, "unit": "µM"},
      {"measurement": "TGI", "setting": "SF-539 CNS", "result": 58.5, "unit": "µM"},
      {"measurement": "GI50", "setting": "MDA-MB-468 breast", "result": 4.53, "unit": "µM"},
      {"measurement": "TGI", "setting": "MDA-MB-468 breast", "result": 18.7, "unit": "µM"},
      {"measurement": "GI50", "setting": "HOP-62 NSCLC", "result": 11.7, "unit": "µM"},
      {"measurement": "TGI", "setting": "HOP-62 NSCLC", "result": 40.1, "unit": "µM"},
      {"measurement": "GI50", "setting": "UACC-62 melanoma", "result": 15.2, "unit": "µM"},
      {"measurement": "GI50", "setting": "SNB-19 CNS", "result": 48.1, "unit": "µM"},
      {"measurement": "GI50", "setting": "MCF7 breast", "result": 9.86, "unit": "µM"},
      {"measurement": "GI50", "setting": "HOP-92 NSCLC", "result": 28.2, "unit": "µM"},
      {"measurement": "GI50", "setting": "ACHN renal", "result": 19, "unit": "µM"},
      {"measurement": "TGI", "setting": "ACHN renal", "result": 43.7, "unit": "µM"},
      {"measurement": "GI50", "setting": "SK-OV-3 ovarian", "result": 20.5, "unit": "µM"},
      {"measurement": "TGI", "setting": "SK-OV-3 ovarian", "result": 96.2, "unit": "µM"},
      {"measurement": "GI50", "setting": "U251 glioblastoma", "result": 16.1, "unit": "µM"},
      {"measurement": "GI50", "setting": "K-562 leukemia", "result": 27.8, "unit": "µM"},
      {"measurement": "GI50", "setting": "A549 NSCLC", "result": 26.9, "unit": "µM"},
      {"measurement": "GI50", "setting": "LOX IMVI melanoma", "result": 23.1, "unit": "µM"},
      {"measurement": "GI50", "setting": "RPMI-8226 leukemia", "result": 7.95, "unit": "µM"},
      {"measurement": "TGI", "setting": "RPMI-8226 leukemia", "result": 22.6, "unit": "µM"},
      {"measurement": "GI50", "setting": "PC-3 prostate", "result": 80.2, "unit": "µM"},
      {"measurement": "GI50", "setting": "M14 melanoma", "result": 20.8, "unit": "µM"},
      {"measurement": "GI50", "setting": "HCT-15 colon", "result": 11.1, "unit": "µM"},
      {"measurement": "GI50", "setting": "OVCAR-8 ovarian", "result": 11.8, "unit": "µM"},
      {"measurement": "GI50", "setting": "OVCAR-5 ovarian", "result": 34.2, "unit": "µM"},
      {"measurement": "GI50", "setting": "MALME-3M melanoma", "result": 14, "unit": "µM"},
      {"measurement": "TGI", "setting": "MALME-3M melanoma", "result": 30.7, "unit": "µM"},
      {"measurement": "GI50", "setting": "HL-60(TB) leukemia", "result": 1.34, "unit": "µM"},
      {"measurement": "TGI", "setting": "HL-60(TB) leukemia", "result": 2.78, "unit": "µM"},
      {"measurement": "GI50", "setting": "RXF 393 renal", "result": 17.3, "unit": "µM"},
      {"measurement": "TGI", "setting": "RXF 393 renal", "result": 33.3, "unit": "µM"},
      {"measurement": "GI50", "setting": "CAKI-1 renal", "result": 13.2, "unit": "µM"},
      {"measurement": "GI50", "setting": "SW-620 colon", "result": 26.8, "unit": "µM"},
      {"measurement": "GI50", "setting": "SF-295 CNS", "result": 19.2, "unit": "µM"},
      {"measurement": "TGI", "setting": "SF-295 CNS", "result": 43.1, "unit": "µM"},
      {"measurement": "GI50", "setting": "SK-MEL-28 melanoma", "result": 89.7, "unit": "µM"},
      {"measurement": "GI50", "setting": "SN12C renal", "result": 8.12, "unit": "µM"},
      {"measurement": "GI50", "setting": "KM12 colon", "result": 70.3, "unit": "µM"},
      {"measurement": "GI50", "setting": "OVCAR-3 ovarian", "result": 26, "unit": "µM"},
      {"measurement": "GI50", "setting": "DU-145 prostate", "result": 28.5, "unit": "µM"},
      {"measurement": "TGI", "setting": "DU-145 prostate", "result": 90, "unit": "µM"},
      {"measurement": "GI50", "setting": "BT-549 breast", "result": 16.9, "unit": "µM"},
      {"measurement": "TGI", "setting": "BT-549 breast", "result": 82.1, "unit": "µM"},
      {"measurement": "GI50", "setting": "SK-MEL-2 melanoma", "result": 63.1, "unit": "µM"},
      {"measurement": "GI50", "setting": "HCT-116 colon", "result": 23.8, "unit": "µM"},
      {"measurement": "GI50", "setting": "UO-31 renal", "result": 52, "unit": "µM"},
      {"measurement": "GI50", "setting": "MOLT-4 leukemia", "result": 1.01, "unit": "µM"},
      {"measurement": "TGI", "setting": "MOLT-4 leukemia", "result": 2.2, "unit": "µM"},
      {"measurement": "GI50", "setting": "SF-268 CNS", "result": 7.04, "unit": "µM"},
      {"measurement": "TGI", "setting": "SF-268 CNS", "result": 44.9, "unit": "µM"},
      {"measurement": "GI50", "setting": "NCI-H23 lung", "result": 17.8, "unit": "µM"},
      {"measurement": "TGI", "setting": "NCI-H23 lung", "result": 60.5, "unit": "µM"},
      {"measurement": "GI50", "setting": "CCRF-CEM leukemia", "result": 2.38, "unit": "µM"},
      {"measurement": "TGI", "setting": "CCRF-CEM leukemia", "result": 4.41, "unit": "µM"},
      {"measurement": "GI50", "setting": "786-0 renal", "result": 28.9, "unit": "µM"},
      {"measurement": "GI50", "setting": "OVCAR-4 ovarian", "result": 40.7, "unit": "µM"},
      {"measurement": "GI50", "setting": "NCI-H522 lung", "result": 14.4, "unit": "µM"},
      {"measurement": "TGI", "setting": "NCI-H522 lung", "result": 28.1, "unit": "µM"}
    ]}
  ]
}
